According to EP0585371B1, “AROMATIC OLIGOMERIC COMPOUNDS USEFUL AS MIMICS OF BIOACTIVE MACROMOLECULES” (RHONE-POULENC RORER INTERNATIONAL (HOLDINGS) INC., priority 1991, dated 1992):

Columns and labels:
vWF Binding to Gp1b = target: T1, vWF Binding to Gp1b (Homo sapiens, UniProt P04275+P07359); experiment: Inhibition of ristocetin-induced binding of 125I-vWF to formalin-fixed platelets; details: ristocetin 1.0 mg/ml; for Ristocetin-Induced Inhibition of vWF Binding to Gp1b: at 100 µg/ml
T1 construct: multimeric vWF (isolated from human plasma cryoprecipitate); Formalin-fixed platelets, prepared according to the method of MacFarlane; from tissue; host or cells: vWF from human plasma cryoprecipitate; GPIb on formalin-fixed platelets
Experimental: The binding of vWf (vonWillebrand Factor) to glycoprotein Ib is measured in one of two experimental systems, in the presence of either ristocetin or botrocetin as modulators of binding. The ristocetin modulated binding is described herein.
Formalin-fixed platelets, prepared according to the method of MacFarlane, D. et al., Thromb. Diath. Haemorrh. 34, 306-308 (1975), were preincubated at room temperature for 15 minutes with specified dilutions of oligomers according to the present invention. Ristocetin, (Sigma, St. Louis, MO) diluted to a final concentration of 1.0 mg/ml, and ^125I-labelled multimeric vWF (isolated from human plasma cryoprecipitate according to the method of Fulcher, C.A. et al. Proc. Natl. Acad. Sci. USA, 79, 1648-1652 (1982), and labelled according to the method of Fraker, P.J. et al. Biochem. Biophys. Res. Commun., 80, 849-857 (1978)) were then added to the incubation mixture, and the amount of ^125I- vWF bound to the platelets was determined. ^125I-vWF binding to the platelets was referenced against 100% binding which was defined as the amount of ^125I- vWF bound in the absence of added oligomer compound. The method for measuring vWF binding is reported in detail in Ruggeri et al., J. Clin. Invest., 72, 1-12, (1983), herein incorporated by reference.

normal pooled plasma = experiment: Anticoagulation activity, Activated Partial Thromboplastin Time (APTT) test; details: concentration required to double clotting time
Experimental: The following test measures anticoagulant activity of the oligomers of the present invention and utilizes the Activated Partial Thromboplastin Time (APTT) test, with the following procedures.
To an assay cuvette is added 100 µl of normal pooled plasma (George King Biomedical Inc., Kansas) and […] of a solution containing the test compound in aqueous 50 mM Tris hydrochloride at pH 7.5 (0.2 mg of sample in one ml buffer). The sample is placed in a MLA coagulation timer which automatically maintains the sample at 37°C for 2.5 minutes, 100 µl of actin activated cephaloplastin reagent is injected, kept 5 minutes, 100 µl of 35 mM CaCI is injected, and clot formation is determined photometrically and the clotting time recorded. Each example is examined at a variety of concentrations, generally from about .025 mg/ml to about 1 mg/ml, and the clotting times are graphed as a function of concentration. From the graphic results, the concentration required to double clotting time (ICDCT) is calculated by linear interpolation.

[1] = target: T2, ESb mouse lymphoma heparanase (Mus musculus, UniProt Q6YGZ1); experiment: Inhibition of heparanase activity (degradation of labeled ECM heparan sulfate); assay type: biochemical; details: 24 hours incubation with labeled ECM
T2 construct: endogenous in cells; host or cells: ESb mouse lymphoma cells
T2 sequence (Q6YGZ1 28-535): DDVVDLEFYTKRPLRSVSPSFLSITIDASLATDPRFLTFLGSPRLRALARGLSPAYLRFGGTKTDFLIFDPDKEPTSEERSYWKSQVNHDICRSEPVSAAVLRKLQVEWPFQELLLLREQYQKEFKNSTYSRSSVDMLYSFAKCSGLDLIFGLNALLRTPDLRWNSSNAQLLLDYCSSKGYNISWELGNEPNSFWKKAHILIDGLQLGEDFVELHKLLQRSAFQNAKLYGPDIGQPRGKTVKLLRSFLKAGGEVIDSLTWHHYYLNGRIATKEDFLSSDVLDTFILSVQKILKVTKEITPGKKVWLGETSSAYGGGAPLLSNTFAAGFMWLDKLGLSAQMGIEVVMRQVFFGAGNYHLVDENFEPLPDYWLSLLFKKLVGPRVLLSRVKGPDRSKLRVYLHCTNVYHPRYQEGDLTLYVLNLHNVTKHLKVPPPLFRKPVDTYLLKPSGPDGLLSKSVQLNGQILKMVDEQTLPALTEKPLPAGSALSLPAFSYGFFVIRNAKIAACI
Experimental: Heparanase is an endoglucuronidase capable of degrading […] (HS) at specific intrachain sites.
The ability of compounds of the present invention to inhibit lymphomacell derived heparanase is tested in the assay system described by Vlodavsky et al., Cancer Research 43, 2704-2711 (1983). […] labeled ECM is incubated for 24 hours with ESb mouse lymphoma heparanase in the presence of various concentrations of the oligomers tested. Degradation of the HS is followed by gel filtration of the supematants. Heparanase activity is expressed as the total amount of labeled low-molecular-weight fragments released from the EMC substrate.

[2] = tested on: human fixed thrombin activated platelets; experiment: Platelet aggregation inhibition (fibrinogen-induced); assay type: cell-based; details: human fibrinogen added
Experimental: The method for measuring platelet aggregation inhibition is essentially that of Ruggeri, et al., Proc. Natl. Acad. Sci. USA, 83, 5708-5712 (1986), using formalin-fixed platelets as prepared by Plow, et al., Proc. Natl. Acad. Sci. USA, 79, 3711-3715 (1982). A given amount of the compound of the present invention or other compound to be tested (10 to 100 µl of a 1 mg/ml solution) is incubated at 37°C with 400 µl of human fixed thrombin activated platelets for 2 minutes. 12.5 µl of human fibrinogen solution is added and aggregation is monitored using a platelet aggregation profiler (Model PAP-4). Controls consist of fibrinogen added to incubated platelets and the resulting aggregation is considered as 100%. Percent inhibition in the presence of a given concentration of test compound versus concentration of the compound is plotted and the concentration required to give 50% inhibition (IC50) is determined.

T1 sequence (P04275 764-2813 limits assumed): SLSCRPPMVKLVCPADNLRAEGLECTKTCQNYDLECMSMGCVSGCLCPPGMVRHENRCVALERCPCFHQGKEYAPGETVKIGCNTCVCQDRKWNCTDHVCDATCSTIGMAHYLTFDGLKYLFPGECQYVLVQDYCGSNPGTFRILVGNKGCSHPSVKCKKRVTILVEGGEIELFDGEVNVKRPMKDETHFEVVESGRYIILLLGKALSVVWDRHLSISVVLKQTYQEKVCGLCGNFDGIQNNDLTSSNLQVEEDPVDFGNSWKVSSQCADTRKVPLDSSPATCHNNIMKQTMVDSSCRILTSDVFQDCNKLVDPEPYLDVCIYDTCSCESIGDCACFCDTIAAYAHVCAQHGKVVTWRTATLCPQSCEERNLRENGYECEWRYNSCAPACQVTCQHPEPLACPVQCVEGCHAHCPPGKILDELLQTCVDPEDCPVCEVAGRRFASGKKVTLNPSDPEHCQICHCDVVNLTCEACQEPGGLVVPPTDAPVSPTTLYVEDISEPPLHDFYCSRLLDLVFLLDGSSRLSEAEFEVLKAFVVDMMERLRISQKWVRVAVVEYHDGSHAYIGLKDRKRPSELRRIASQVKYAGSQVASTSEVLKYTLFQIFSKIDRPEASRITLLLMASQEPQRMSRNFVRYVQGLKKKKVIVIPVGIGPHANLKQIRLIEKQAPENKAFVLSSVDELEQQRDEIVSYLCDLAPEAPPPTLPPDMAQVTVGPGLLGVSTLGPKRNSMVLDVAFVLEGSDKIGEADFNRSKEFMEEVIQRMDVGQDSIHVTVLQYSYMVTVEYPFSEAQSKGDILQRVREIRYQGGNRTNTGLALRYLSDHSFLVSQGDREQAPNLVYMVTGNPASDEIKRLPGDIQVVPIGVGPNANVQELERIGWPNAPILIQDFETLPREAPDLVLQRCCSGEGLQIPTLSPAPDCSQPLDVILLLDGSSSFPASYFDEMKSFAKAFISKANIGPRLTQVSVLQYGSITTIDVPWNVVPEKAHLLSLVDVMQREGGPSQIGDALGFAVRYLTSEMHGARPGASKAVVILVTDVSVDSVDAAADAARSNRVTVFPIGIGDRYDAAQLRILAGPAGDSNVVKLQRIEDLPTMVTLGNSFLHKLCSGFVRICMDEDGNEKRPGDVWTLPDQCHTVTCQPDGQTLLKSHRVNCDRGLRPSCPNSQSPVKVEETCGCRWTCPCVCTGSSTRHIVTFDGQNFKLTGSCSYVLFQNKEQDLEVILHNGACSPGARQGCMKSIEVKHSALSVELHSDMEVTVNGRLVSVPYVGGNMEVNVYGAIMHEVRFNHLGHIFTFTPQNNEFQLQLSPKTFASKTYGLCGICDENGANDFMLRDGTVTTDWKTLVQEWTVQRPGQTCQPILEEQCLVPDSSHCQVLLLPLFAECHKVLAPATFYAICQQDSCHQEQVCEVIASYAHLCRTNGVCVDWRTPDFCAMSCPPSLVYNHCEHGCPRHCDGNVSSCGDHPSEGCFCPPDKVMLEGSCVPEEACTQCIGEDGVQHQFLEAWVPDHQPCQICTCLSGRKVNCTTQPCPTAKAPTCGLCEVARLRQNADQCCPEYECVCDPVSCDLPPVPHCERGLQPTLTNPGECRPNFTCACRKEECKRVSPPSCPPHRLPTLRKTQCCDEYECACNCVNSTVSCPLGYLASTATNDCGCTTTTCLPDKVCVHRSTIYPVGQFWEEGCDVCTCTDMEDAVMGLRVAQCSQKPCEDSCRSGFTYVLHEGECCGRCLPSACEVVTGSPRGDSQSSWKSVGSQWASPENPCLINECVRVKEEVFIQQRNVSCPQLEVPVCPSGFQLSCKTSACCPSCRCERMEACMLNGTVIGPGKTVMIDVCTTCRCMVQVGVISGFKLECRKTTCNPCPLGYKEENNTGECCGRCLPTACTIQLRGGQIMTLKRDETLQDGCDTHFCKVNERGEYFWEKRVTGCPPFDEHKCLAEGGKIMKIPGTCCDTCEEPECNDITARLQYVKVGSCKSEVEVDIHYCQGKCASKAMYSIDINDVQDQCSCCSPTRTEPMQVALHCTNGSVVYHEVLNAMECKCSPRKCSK
T1 sequence (P07359 17-652): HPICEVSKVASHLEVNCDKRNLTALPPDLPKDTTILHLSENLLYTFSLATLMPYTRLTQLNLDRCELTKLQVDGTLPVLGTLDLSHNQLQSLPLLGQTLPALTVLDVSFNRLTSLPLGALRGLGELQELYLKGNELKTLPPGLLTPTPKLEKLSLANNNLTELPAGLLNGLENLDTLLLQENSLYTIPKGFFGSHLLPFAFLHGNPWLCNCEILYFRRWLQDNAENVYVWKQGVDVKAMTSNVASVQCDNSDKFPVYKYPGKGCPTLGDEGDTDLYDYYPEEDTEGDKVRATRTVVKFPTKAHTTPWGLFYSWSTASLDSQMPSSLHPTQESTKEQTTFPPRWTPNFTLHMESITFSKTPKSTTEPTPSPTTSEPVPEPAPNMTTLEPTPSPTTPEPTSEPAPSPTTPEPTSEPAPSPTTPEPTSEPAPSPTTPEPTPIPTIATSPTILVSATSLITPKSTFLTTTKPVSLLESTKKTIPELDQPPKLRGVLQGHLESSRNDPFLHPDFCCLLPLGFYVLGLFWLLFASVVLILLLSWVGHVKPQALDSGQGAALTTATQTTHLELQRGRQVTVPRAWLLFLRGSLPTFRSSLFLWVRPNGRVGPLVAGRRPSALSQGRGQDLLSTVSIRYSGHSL

Ristocetin-Induced Inhibition of vWF Binding to Gp1b IC50 (vWF Binding to Gp1b) [µg/mL]	IC50 (vWF Binding to Gp1b) [µM]	% Inhibition of Heparanase Activity (5µg/ml) [1] [%]	Platelet Aggregation IC50 [2] [µg/mL]	Ristocetin-Induced Inhibition of vWF Binding to Gp1b (vWF Binding to Gp1b) [% at 100 µg/ml]	SMILES	APTT ICDCT (normal pooled plasma) [µg/mL]
>100					COc1ccc(CCC(=O)O)c(COc2cc(CCC(=O)O)c(COc3cc(CCC(=O)O)c(COc4cc(CCC(=O)O)c(COc5cc(CCC(=O)O)ccc5OC)cc4OC)cc3OC)cc2OC)c1 [Ex12, Step 11, 2-[4-[4-[4-[[5-(2-carboxyethyl)-2-methoxy]phenoxymethyl]-[5-(2-carboxyethyl)-2-methoxy]phenoxymethyl]-[5-(2-carboxyethyl)-2-methoxy]phenoxymethyl]-[5-(2-carboxyethyl)-2-methoxy]phenoxymethyl]-4-methoxyhydrocinnamic acid]	>250
		52	319		COc1cc(CCc2cc(OC)c(Cc3cc(OC)c(Cc4cc(OC)c(Cc5cc(OC)c(Cc6cc(OC)c(Cc7cc(OC)c(Cc8cc(OC)c(Cc9cc(O)ccc9CCC(=O)O)cc8CCC(=O)O)cc7CCC(=O)O)cc6CCC(=O)O)cc5CCC(=O)O)cc4CCC(=O)O)cc3CCC(=O)O)cc2CCC(=O)O)c(CCC(=O)O)cc1Cc1cc(OC)c(Cc2cc(OC)c(Cc3cc(OC)c(Cc4cc(OC)c(Cc5cc(OC)c(Cc6cc(OC)c(Cc7cc(O)ccc7CCC(=O)O)cc6CCC(=O)O)cc5CCC(=O)O)cc4CCC(=O)O)cc3CCC(=O)O)cc2CCC(=O)O)cc1CCC(=O)O [Ex 9, 1,2-bis-[4-[4-[4-[4-[4-[4-[4-[[2-(2-carboxyethyl)-5-hydroxy]benzyl]-[2-(2-carboxyethyl)-5-methoxy]benzyl]-[2-(2-carboxyethyl)-5-methoxy]benzyl]-[2-(2-carboxyethyl)-5-methoxy]benzyl]-[2-(2-carboxyethyl)-5-methoxy]benzyl]-[2-(2-carboxyethyl)-5-methoxy]benzyl]-[2-(2-carboxyethyl)-5-methoxy]benzyl]-[2-(2-carboxyethyl)-5-methoxy]phenyl]ethane]	105

The remaining lines, values behind:

SMILES	Ristocetin-Induced Inhibition of vWF Binding to Gp1b IC50 (vWF Binding to Gp1b) [µg/mL]	IC50 (vWF Binding to Gp1b) [µM]	% Inhibition of Heparanase Activity (5µg/ml) [1] [%]	Platelet Aggregation IC50 [2] [µg/mL]	Ristocetin-Induced Inhibition of vWF Binding to Gp1b (vWF Binding to Gp1b) [% at 100 µg/ml]	APTT ICDCT (normal pooled plasma) [µg/mL]
O=C(O)CCc1ccc(O)c(Cc2cc(CCC(=O)O)cc(Cc3cc(CCC(=O)O)cc(Cc4cc(CCC(=O)O)ccc4O)c3O)c2O)c1 [Ex 1, Step 3, bis-[5-(2-carboxyethyl)-3-[5-(2-carboxyethyl)-2-hydroxybenzyl]2-hydroxyphenyl]methane]		> 143				>250
COc1cc(C)c(CCC(=O)O)cc1Cc1cc(OC)c(Cc2cc(OC)c(Cc3cc(OC)c(Cc4cc(OC)c(Cc5cc(OC)c(Cc6cc(OC)c(Cc7cc(O)ccc7CCC(=O)O)cc6CCC(=O)O)cc5CCC(=O)O)cc4CCC(=O)O)cc3CCC(=O)O)cc2CCC(=O)O)cc1CCC(=O)O [Ex 5, Step 2, 5-[4-[4-[4-[4-[4-[4-[[2-(2-carboxyethyl)-5-hydroxy]benzyl]-[2-(2-carboxyethyl)-5-methoxy]benzyl]-[2-(2-carboxyethyl)-5-methoxy]benzyl]-[2-(2-carboxyethyl)-5-methoxy]benzyl]-[2-(2-carboxyethyl)-5-methoxy]benzyl]-[2-(2-carboxyethyl)-5-methoxy]benzyl]-[2-(2-carboxyethyl)-5-methoxy]benzyl]-4-methoxy-2-methylhydrocinnamic acid]			20	>1000		37
O=C(O)CCc1cc(Cc2cc(O)c(Cc3cc(O)c(Cc4cc(O)ccc4CCC(=O)O)cc3CCC(=O)O)cc2CCC(=O)O)c(O)cc1CCc1cc(O)c(Cc2cc(O)c(Cc3cc(O)c(Cc4cc(O)ccc4CCC(=O)O)cc3CCC(=O)O)cc2CCC(=O)O)cc1CCC(=O)O [Ex 6, 1,2-bis-[4-[4-[4-[[2-(2-carboxyethyl)-5-hydroxy]benzyl]-[2-(2-carboxyethyl)-5-hydroxy]benzyl]-(2-(2-carboxyethyl)-5-hydroxy]benzyl]-[2-(2-carboxyethyl)-5-hydroxy]phenyl]ethane]				>1000	42	387
COc1cc(CCc2cc(OC)c(Cc3cc(OC)c(Cc4cc(OC)c(Cc5cc(O)ccc5CCC(=O)O)cc4CCC(=O)O)cc3CCC(=O)O)cc2CCC(=O)O)c(CCC(=O)O)cc1Cc1cc(OC)c(Cc2cc(OC)c(Cc3cc(O)ccc3CCC(=O)O)cc2CCC(=O)O)cc1CCC(=O)O [Ex 7, 1,2-bis-[4-[4-[4-[[2-(2-carboxyethyl)-5-hydroxy]benzyl]-[2-(2-carboxyethyl)-5-methoxy]benzyl]-[2-(2-carboxyethyl)-5-methoxy]benzyl]-[2-(2-carboxyethyl)-5-methoxy]phenyl]ethane]					17	500
COc1cc(Cc2cc(CCC(=O)O)c(C)cc2O)c(CCC(=O)O)cc1Cc1cc(OC)c(Cc2cc(OC)c(Cc3cc(OC)c(Cc4cc(OC)c(Cc5cc(OC)c(Cc6cc(OC)c(Cc7cc(OC)c(Cc8cc(OC)c(Cc9cc(OC)c(Cc%10cc(OC)c(Cc%11cc(OC)c(Cc%12cc(OC)c(Cc%13cc(OC)c(Cc%14cc(O)ccc%14CCC(=O)O)cc%13CCC(=O)O)cc%12CCC(=O)O)cc%11CCC(=O)O)cc%10CCC(=O)O)cc9CCC(=O)O)cc8CCC(=O)O)cc7CCC(=O)O)cc6CCC(=O)O)cc5CCC(=O)O)cc4CCC(=O)O)cc3CCC(=O)O)cc2CCC(=O)O)cc1CCC(=O)O [Ex 8]			70			35
COC(=O)CCc1cc(OCc2cc(OC)c(OCc3cc(OC)c(OCc4cc(OC)c(OC(C)=O)cc4CCC(=O)OC)cc3CCC(=O)OC)cc2CCC(=O)OC)c(OC)cc1CO [Ex 10, Step 13]						>250
